Three molecules from patent US20080248002A1, “ANTI-ANGIOGENIC CELLULAR AGENT FOR CANCER THERAPY” (priority 1999, published 2008) can be followed below.

The subject of one assay is EC targets. Briefly: BFA / conA treatment of CIK effector cells, lysis of EC targets. The format is cell-based, human. The conditions noted are these: day 21 CIK effector cells pre-incubated 2 hours with 1 μM BFA or 0.1 μM conA. As to the method:
(§1) Brefeldin A (BFA) blocks the transport of FasL from intracellular stores to the cell surface (Lippincott-Schwartz et al. (1989) Cell 56:801; Lippincott-Schwartz et al. (1990) Cell 60:821; and Orci et al. (1991) Cell 64:1183). […] BFA was dissolved at 100 μg/ml in 70% ethanol and used fresh or stored up to 4 weeks at −20° C. Prior to cytotoxicity assays, the cells were rinsed three times with PBS and BFA-free fresh medium was added.
(§2) Concanamycin A (conA) depletes perforin contained in cytotoxic T-cell granules (Kataoka et al. (1996) J. Immunol. 156:3678; Ohminami et al. (1999) Blood 93:925). 15 ConA-treated effector cells were used in cytotoxicity assays to approximate the fractional contribution of the perforin/granzyme pathway to the total CIK cell mediated cytotoxicity.
(§3) Louis, Mo.). The cells were then incubated for 2 hours at 37° C. in a humidified atmosphere of 5% CO2.
(§4) BFA treatment of effector cells and the associated block of FasL transport reduced CIK lysis of the tumor target OCI-Ly8 by 33%, but had no effect on the lysis of EC targets (FIG. 4).

The subject of the next assay is EC. The experiment in a line: BFA pre-treatment of CIK targets, 51Cr release assay, EC. The conditions noted are these: targets pre-treated with 10 μM BFA, 20:1 E:T ratio. The format is cell-based. As to the method:
(§5) CIK targets were treated with BFA and/or tunicamycin (TM). […] This resistance is sustained after BFA is removed from the media.

The subject of assay [1] is lymphoblastoid target AMK. Briefly: BFA / TM pre-treatment of CIK targets, 51Cr release assay, lymphoblastoid target AMK. The format is cell-based. To be noted: target pre-treatment (TM 22 hr), 20:1 E:T ratio. On the procedure: as §5
The next assay relates to OCI-Ly8 tumor targets. The experiment in a line: BFA / TM pre-treatment of CIK targets, 51Cr release assay, OCI-Ly8 tumor targets. To be noted: 20:1 E:T ratio. The format is cell-based. As to the method:
as §5

For a further assay, the system named is OCI-Ly8. Briefly: BFA / conA treatment of CIK effector cells, lysis of OCI-Ly8. To be noted: day 21 CIK effector cells pre-incubated 2 hours with 1 μM BFA or 0.1 μM conA. The format is cell-based. As to the method: as §1, §2, §3, §4

`C[C@H]1CCC/C=C/[C@@H]2C[C@H](O)C[C@H]2[C@H](O)/C=C/C(=O)O1` [BFA, Brefeldin A]: the “effect on CIK lysis of EC targets” value in the assay with EC targets is recorded as “no effect”. Moreover, the “protection of EC from CIK mediated lysis” value in the assay on EC was “complete protection”. Also, in assay [1], the “effect of target pre-treatment on CIK killing of lymphoblastoid targets” value is recorded as “did not reduce killing”. For the same molecule, the “effect of target pre-treatment on CIK killing of tumor targets” value in the assay on OCI-Ly8 tumor targets is reported as “did not reduce killing”. Also, the “reduction of CIK lysis of OCI-Ly8” value in the assay on OCI-Ly8 was determined as 33%.

In the case of tunicamycin [TM], the “effect of target pre-treatment on CIK killing of lymphoblastoid targets” value in assay [1] is “rendered susceptible”. The “effect of target pre-treatment on CIK killing of tumor targets” value in the assay with OCI-Ly8 tumor targets is “Neither TM or TM and BFA together altered CIK mediated lysis”.

Turning to `C/C=C/[C@H]1O[C@@](O)([C@@H](C)[C@H](O)[C@H](C)[C@H]2OC(=O)/C(OC)=C/C(C)=C/[C@@H](C)[C@@H](O)[C@@H](CC)[C@@H](O)[C@H](C)C/C(C)=C/C=C/[C@@H]2OC)C[C@@H](O[C@H]2C[C@@H](O)[C@H](OC(N)=O)[C@@H](C)O2)[C@@H]1C` [Con A, Concanamycin A], in the assay with EC targets, the “effect on CIK lysis of EC targets” value is on record as “completely abolished EC lysis”. In the assay on OCI-Ly8, the “reduction of CIK lysis of OCI-Ly8” value worked out at 66%.
